Test results reported in US20170198044A1, “COMPOSITIONS AND METHODS FOR SAFE AND EFFECTIVE IMMUNOTHERAPY” (TheraMAB LLC, priority 2014, published 2017).

Assays:
Assay type in all cases: cell-based, human
Treg cells = assay: Treg-cell vs Tconv-cell expansion and proliferation in HD precultured PBMCs (flow cytometry, Ki67, CFSE); settings: 0.01 mM MP, TAB08 1 μg/mL
Protocol: Treg-cell (CD25^hiFoxp3^+) and activated Tconv-cell (CD25^loFoxp3^−) frequencies among gated CD4^+ T cells were then assessed by flow cytometry using a live light-scatter entrance gate. […] Treg-cell frequencies among CD4^+ T cells and absolute numbers of Treg cells were determined by flow cytometry after 5 days of culture. […] Treg-cell versus Tconv-cell expansion in CD25-depleted and nondepleted PBMC cultures was then assessed by flow cytometry, using a live light-scatter entrance gate followed by gates for CD4^+Foxp3^− (left dot plots) and CD4^+Foxp3^+ (right dot plots). […] Proliferation was assessed by, in Panel D, the expression of Ki67 and Panel E CFSE dilution. *denotes insufficient number of cells for evaluation. […]
Cell proliferation was measured from day 2 to 3 as radioactivity incorporated from [H^3] thymidine (1 μCi per well, Hartmann Analytic GmbH) into DNA, using a liquid scintillation counter (PerkinElmer). Results are expressed as counts per minute (cpm). […]
For phenotypic analysis, cells were stained with the appropriate antibodies for 20 min at 4° C., washed once with FACS buffer (PBS, 0.1% BSA, 0.2% NaN3), and fixed with 2% paraformaldehyde. […] Data were analyzed using FlowJo Version 9.4.11 software (TreeStar). Results are shown as log 10 fluorescence intensities. […]

[1] = tested on: anti-CD3 stimulated CFSE-labeled CD4+ T cells; assay: Treg-cell suppression assay; settings: Enbrel during Treg-cell expansion, RA patient
[2] = tested on: PBMC samples taken from RA patients; assay: In vitro RESTORE system: cytokine production by PBMC samples from RA patients; settings: OKT3 1 μg/ml
Description: The purpose of the RESTORE method application was definition of safety parameters of the use of TAB08 antibody and the possibility of participation of RA patients in clinical trials, in particular:
To determine the levels of response of peripheral blood mononuclear cells of RA patients to various concentrations of TAB08, i.e. trace the dose-dependence of cytokine release by mononuclear cells exposed to TAB08 in vitro.
To determine the ability of methylprednisolone, which has an anti-inflammatory effect, to suppress TAB08-induced cytokine release.
(§1) PBMC were cultured in supplemented RPMI 1640 containing 10% AB-positive heat-inactivated human serum (Sigma) for two days at high cell density (HD; 1×10^7/ml) to allow tissue-like interactions. Cells were then harvested and cultured under standard conditions (1×10^6/ml) in 96 or 48-well flat-bottom tissue culture plates in a final volume of 0.2 or 0.6 ml in a humidified incubator at 37° C. with 5% CO2. Intracellular Ki67 staining was used to measure cell proliferation. For intracellular staining of Foxp3, Ki67 and CD4, cells were first surface stained, permeabilized with Fix/Perm (eBioscience), and stained with the appropriate antibodies diluted in Perm/Wash (eBioscience). FACS analysis was performed using a FACSCalibur flow cytometer (BD Biosciences). Data were analyzed using FlowJo software (TreeStar).

regulatory T cells = assay: Regulatory T cells and Ki67+ Tregs in RESTORE system, PBMC samples from RA patients (Table 16)
Protocol: as §1

## C[C@H]1C[C@@H]2[C@H]([C@@H](O)C[C@@]3(C)[C@H]2CC[C@]3(O)C(=O)CO)[C@@]2(C)C=CC(=O)C=C12 [MP, methylprednisolone]
Treg cells
  suppression of division of CD4+ Tconv cells (CFSE): ~80%

## Enbrel
[1]
  effect on suppressive activity of TAB08-expanded Treg cells: did not lead to further enhancement of suppressive activity

## OKT3: Clinical grade OKT3 (Janssen-Cilag), anti-CD3 (anti-TCR) antibody used as stimulus
[2]
  IL-2 production: 0.00 pg/mL
Regulatory T cells; Patient 0104, OKT3 1 μg_mL
  % FoxP3+/CD4+: 4.96%
  % Ki67+/FoxP3+ CD4+: 84.9%
Regulatory T cells; Patient 0105, OKT3 1 μg_mL
  % FoxP3+/CD4+: 5.1%
  % Ki67+/FoxP3+ CD4+: 80.5%
Regulatory T cells; Patient 0204, OKT3 1 μg_mL
  % FoxP3+/CD4+: 4.52%
  % Ki67+/FoxP3+ CD4+: 77.7%
Regulatory T cells; Patient 0205, OKT3 1 μg_mL
  % FoxP3+/CD4+: 4.62%
  % Ki67+/FoxP3+ CD4+: 67.7%
Regulatory T cells; Patient 0206, OKT3 1 ug_ml
  % FoxP3+/CD4+: 2.79%
  % Ki67+/FoxP3+ CD4+: 80.8%
